# According to ChEMBL document CHEMBL1201862, “PubChem BioAssay data set” (2004):
# Active and inactive are the calls of the source. Cut-off read from the data, not from the text of the source, for most assays here: actives have a measured EC50 and inactives only a lower limit.
# Columns and labels:
# [1] = target: T1, Calpain-2 catalytic subunit (Sus scrofa, UniProt P43367); experiment: pig calpain II inhibitor potency, dose response, biochemical, fluorogenic peptide substrate (AID 1420); assay type: functional
# T1 sequence (P43367 whole entry): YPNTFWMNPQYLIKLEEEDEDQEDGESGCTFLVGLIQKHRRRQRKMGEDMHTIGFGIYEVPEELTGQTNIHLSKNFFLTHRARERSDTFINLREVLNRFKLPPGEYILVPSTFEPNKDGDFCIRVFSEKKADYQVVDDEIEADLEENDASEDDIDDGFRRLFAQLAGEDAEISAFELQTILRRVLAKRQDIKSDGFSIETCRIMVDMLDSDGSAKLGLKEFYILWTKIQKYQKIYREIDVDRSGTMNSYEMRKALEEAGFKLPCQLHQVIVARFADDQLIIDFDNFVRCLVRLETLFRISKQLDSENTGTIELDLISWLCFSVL
# [2] = cytotoxicity in HEK-293T cells, dose response, cytotoxicity control for TCR NF-kB inhibitor project, luminescence, T-cell screen hits (AID 489026); assay type: functional, cell-based;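 note: cells exposed to compound about 14 hours before the viability readout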
# [3] = target: T2, Corticotropin-releasing factor receptor 2/Corticotropin-releasing factor-binding protein (Homo sapiens, UniProt P24387+Q13324); experiment: Dose Response confirmation of uHTS hits for small molecule antagonists of the CRF-binding protein and CRF-R2 receptor complex.; assay type: functional; details: read-out: IC50_Mean
# T2 sequence (Q13324 whole entry): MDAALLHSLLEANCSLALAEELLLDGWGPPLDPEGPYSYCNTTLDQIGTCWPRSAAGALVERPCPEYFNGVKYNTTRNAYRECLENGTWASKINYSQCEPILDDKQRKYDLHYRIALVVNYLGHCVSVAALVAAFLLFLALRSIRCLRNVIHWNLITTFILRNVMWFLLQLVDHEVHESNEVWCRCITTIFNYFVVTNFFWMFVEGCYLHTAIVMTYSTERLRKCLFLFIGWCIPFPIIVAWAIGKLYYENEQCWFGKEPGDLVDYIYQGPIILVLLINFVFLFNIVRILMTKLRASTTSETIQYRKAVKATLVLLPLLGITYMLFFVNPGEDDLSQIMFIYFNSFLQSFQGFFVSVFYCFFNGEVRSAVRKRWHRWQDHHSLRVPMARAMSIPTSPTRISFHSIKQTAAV
# T2 sequence (P24387 whole entry): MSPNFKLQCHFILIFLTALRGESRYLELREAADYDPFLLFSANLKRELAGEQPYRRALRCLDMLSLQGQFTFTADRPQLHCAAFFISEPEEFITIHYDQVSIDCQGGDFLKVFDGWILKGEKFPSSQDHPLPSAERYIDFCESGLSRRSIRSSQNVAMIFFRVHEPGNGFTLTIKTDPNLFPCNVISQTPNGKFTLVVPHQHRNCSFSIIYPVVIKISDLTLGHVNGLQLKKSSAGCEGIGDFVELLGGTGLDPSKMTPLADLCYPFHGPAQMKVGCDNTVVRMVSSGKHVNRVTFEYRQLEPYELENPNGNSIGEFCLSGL
# [4] = target: T2, Corticotropin-releasing factor receptor 2/Corticotropin-releasing factor-binding protein; experiment: activators of CRF receptor 2 with binding protein – uHTS hits, confirmation (AID 602473); assay type: functional; details: read-out: EC50_Mean
# BJ [5] = experiment: cells; assay type: functional, cell-based; details: Homo sapiens
# BJ [6] = experiment: cytotoxicity toward BJ-TERT-LT-ST fibroblasts, dose response, cell-based, RAS-independent, luminescence (AID 1935); assay type: functional; details: Homo sapiens;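 note: BJ fibroblasts immortalized with TERT plus LT and ST oncogenes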
# BJ [7] = experiment: cytotoxicity toward BJ-TERT fibroblasts, dose response, cell-based, RAS-independent, luminescence (AID 1933); assay type: functional; details: Homo sapiens
# [8] = cytotoxicity toward DRD oncogenic fibroblasts, dose response, cell-based, non-viral oncogenic, luminescence (AID 1934); assay type: functional; details: Homo sapiens
# cells [9] = assay type: functional, cell-based
# cells [10] = assay type: functional, cell-based; remark: listed apart in the source
# [11] = Shn3 3'UTR reporter inhibitors, dose response, cell-based, Clone20 osteoblasts, firefly luciferase, cherry-picked (AID 624132); assay type: functional;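 note: firefly luciferase luminescence from reporter carrying the Shn3 3'UTR in osteoblasts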
# [12] = HepG2 cell cytotoxicity, dose response, cytotoxicity control for Shn3 inhibitor project, CellTiter-Glo, cherry-picked (AID 624134); assay type: functional, cell-based
# INS1 = experiment: beta cell apoptosis inhibitors, cytokine rescue, dose response, luminescence, retest (AID 449756); assay type: functional, cell-based; details: Rattus norvegicus;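 note: cell death triggered by IL-1 beta plus TNF-alpha plus IFN-gamma mixture; protective hits raise ATP signal compared with cytokine alone wells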
# [13] = control 3'UTR Renilla luciferase suppression, dose response, counter-screen for Shn3 inhibitor project, cell-based, Clone20-Shn3RL, cherry-picked (AID 624133); assay type: functional
# [14] = target: T3, Rac GTPase-activating protein 1 (Homo sapiens, UniProt Q9H0H5); experiment: MgcRacGAP GTPase-activating activity inhibitors, confirmation, biochemical, ADP Hunter fluorescence, primary and confirmatory (AID 624330); assay type: functional
# T3 sequence (Q9H0H5 whole entry): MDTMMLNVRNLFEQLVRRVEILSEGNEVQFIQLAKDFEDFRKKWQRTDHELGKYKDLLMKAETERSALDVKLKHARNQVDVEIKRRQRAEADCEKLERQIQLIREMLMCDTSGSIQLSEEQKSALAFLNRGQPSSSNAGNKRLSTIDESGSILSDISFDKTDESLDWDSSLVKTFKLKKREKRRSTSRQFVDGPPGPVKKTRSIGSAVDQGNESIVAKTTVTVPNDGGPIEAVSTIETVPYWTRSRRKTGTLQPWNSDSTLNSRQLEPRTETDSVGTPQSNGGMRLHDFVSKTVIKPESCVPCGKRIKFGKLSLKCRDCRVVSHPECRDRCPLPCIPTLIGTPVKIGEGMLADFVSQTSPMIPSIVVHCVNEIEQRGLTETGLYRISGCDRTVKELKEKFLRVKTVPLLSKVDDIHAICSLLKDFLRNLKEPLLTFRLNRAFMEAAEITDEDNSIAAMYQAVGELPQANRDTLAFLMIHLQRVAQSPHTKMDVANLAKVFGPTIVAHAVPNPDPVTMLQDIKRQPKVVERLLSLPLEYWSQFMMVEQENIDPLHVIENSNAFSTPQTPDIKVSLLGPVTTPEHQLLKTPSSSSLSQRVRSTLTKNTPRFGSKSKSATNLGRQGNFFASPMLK
# Streptococcus = experiment: Group A Streptococcus viability loss, dose response, counter-screen for streptokinase expression inhibitor project, luminescence, BacTiterGlo (AID 1915); assay type: functional, organism-based;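 note: potency for reduction of bacterial viability or growth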
# [15] = system: Streptococcus sp. 'group A'; experiment: growth inhibition of control SK(-) GAS strain, dose response, counter-screen for streptokinase expression inhibitor project, luminescence, kanamycin, BacTiterGlo, confirmation (AID 1900); assay type: functional, organism-based
# [16] = NIH-3T3 fibroblast cytotoxicity, dose response, cytotoxicity control, cell-based, fluorescence, Alamar Blue, secondary assay (AID 2327); assay type: functional;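 note: NIH-3T3 mouse fibroblasts cultured with fluconazole at 8 µg/mL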
# [17] = inhibitors of SNCA 5'UTR-driven reporter translation, confirmation, H4 neuroglioma cells, luminescence (AID 1988); assay type: functional, cell-based
# [18] = Luminescence Cell-Based Dose Response HTS to Identify Inhibitors of 5'UTR Stem-Loop Driven Prion Protein mRNA Translation in H4 Neuroglioblastoma Cells. [Related pubchem assays: 1827 (Project Summary), 1813 (Primary HTS)]; assay type: functional
# [19] = inhibitors of firefly luciferase expression or activity, dose response, H4 neuroglioma cells, luminescence (AID 1990); assay type: functional, cell-based
# [20] = C. albicans growth with fluconazole, confirmation, fluorescence, retest (AID 2467); assay type: functional, cell-based
# [21] = target: T4, Heat shock factor protein 1 (Mus musculus, UniProt P38532); experiment: HSF1 potentiators in luciferase reporter cells, confirmation, cell-based, NIH3T3, luminescence, dose retest (AID 435004); assay type: functional;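 note: stress induced by proteasome inhibitor MG132 added 30 min after compound; luciferase reporter driven by HSF1 response element in NIH3T3 cells; actives raise luminescence as potentiators of the MG132 stress response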
# T4 sequence (P38532 whole entry): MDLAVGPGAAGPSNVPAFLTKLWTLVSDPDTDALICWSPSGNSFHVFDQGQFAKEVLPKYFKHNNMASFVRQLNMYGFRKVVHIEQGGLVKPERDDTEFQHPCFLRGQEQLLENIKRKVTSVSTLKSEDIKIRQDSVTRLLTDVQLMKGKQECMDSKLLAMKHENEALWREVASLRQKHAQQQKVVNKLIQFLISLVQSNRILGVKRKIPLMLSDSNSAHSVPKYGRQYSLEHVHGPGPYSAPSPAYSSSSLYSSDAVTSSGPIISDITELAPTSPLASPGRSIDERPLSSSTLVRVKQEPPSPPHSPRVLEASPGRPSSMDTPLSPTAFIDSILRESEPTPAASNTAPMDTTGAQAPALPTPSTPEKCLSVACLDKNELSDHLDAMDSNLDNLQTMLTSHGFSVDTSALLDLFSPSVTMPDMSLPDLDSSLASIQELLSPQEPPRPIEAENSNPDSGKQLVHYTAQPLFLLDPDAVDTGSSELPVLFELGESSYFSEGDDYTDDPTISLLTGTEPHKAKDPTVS
# [22] = Luminescence Cell-Based Dose Retest to Confirm Inhibitors of Cancer Stem Cells. [Related pubchem assays (depositor defined):AID2717, AID2721]; assay type: functional; details: Homo sapiens
compound,measurement,setting,value
O=C(c1ccccc1)c1cn(CC(=O)N2CCCc3ccccc32)c2ccccc12,IC50,[1],< 0.4 µM (not active)
Cc1ccc(N2C(=O)N(CC(=O)Nc3cc(C)cc(C)c3)C(=O)C2C)cc1 (stereo unspecified),IC50,[1],> 50 µM (not active)
COc1ccc(Nc2nc3cc(C)ccc3cc2C#N)c(OC)c1,IC50,[2],> 80 µM (inactive)
CC(C)(C)C1CCC(C(=O)OCC(=O)N2CCN(C(=O)c3ccco3)CC2)CC1 (stereo unspecified),IC50,[1],29.8 µM (not active)
COC(=O)c1ccc(Oc2cc(C)nc(SC)n2)cc1,IC50,[2],> 80 µM (inactive)
COc1ccc(NC(=O)CCN2CCCCCC2)cc1,IC50,[3],> 47.1 µM (inactive)
same,EC50,[4],> 53 µM (inactive)
Cc1ccc(C(=O)c2cc([N+](=O)[O-])ccc2N2CCCCC2)cc1C,IC50,[2],> 80 µM (inactive)
same,EC50,BJ [5],35.6 µM (active)
same,EC50,BJ [6],1.33 µM (active)
same,EC50,BJ [7],1.69 µM (active)
same,EC50,[8],966 nM (active)
CC(=O)N(Cc1ccco1)c1nc(C(=O)Nc2ccc(Cl)cc2)c(C)s1,IC50,[3],> 47.1 µM (inactive)
same,EC50,[4],> 53 µM (inactive)
CCCCC(=O)N1CCN(c2nc3ccc(F)cc3s2)CC1,EC50,cells [9],> 350 µM (not active)
same,EC50,cells [10],4.69 µM (active)
Cc1ccc(OCc2nnc(SCC(=O)c3cccc([N+](=O)[O-])c3)n2C)cc1,IC50,[1],4.87 µM (not active)
O=C(CC1N=C2c3ccccc3N=C(SCc3ccccc3Cl)N2C1=O)NCc1ccco1 (stereo unspecified),IC50,[3],> 47.1 µM (inactive)
same,EC50,[4],> 53 µM (inactive)
CC(=O)N1CCCc2cc(S(=O)(=O)N3CCCC(C(=O)N4CCN(c5cccc(Cl)c5)CC4)C3)ccc21 (stereo unspecified),AC50,[11],1.9 µM (active)
same,AC50,[12],3.29 µM (active)
same,AC50,INS1,2.88 µM (active)
same,AC50,[13],1.13 µM (active)
COc1ccc(-n2ncc(S(=O)(=O)c3ccccc3)c2-c2ccc(Cl)cc2)cc1,IC50,[1],3.23 µM (not active)
CCCCC1(Cc2ccc([N+](=O)[O-])cc2)C(=O)N(c2ccccc2)N(c2ccccc2)C1=O,AC50,[11],10.2 µM (active)
same,AC50,[12],66.8 µM (active)
same,AC50,INS1,3.67 µM (active)
same,AC50,[13],3.42 µM (active)
CCN(CC)S(=O)(=O)c1ccc(NC(=O)c2ccc(CN3CCOCC3)cc2)cc1,IC50,[2],> 80 µM (inactive)
O=C(NCCOc1ccccc1)c1cc([N+](=O)[O-])ccc1N1CCOCC1,IC50,[2],> 80 µM (inactive)
Cc1ccc2c(c1)C(C)CC(C)(C)N2C(=O)CN1CCN(C)CC1 (stereo unspecified),IC50,[3],> 47.1 µM (inactive)
same,IC50,[14],73.3 µM (active)
same,EC50,[4],> 53 µM (inactive)
c1ccc(-c2nnc3sc(-c4cc5ccccc5o4)nn23)cc1,EC50,cells [9],> 350 µM (not active)
same,EC50,cells [10],> 350 µM (not active)
O=C(N/N=C/c1ccccc1O)c1ccc2c(c1)OCO2,EC50,Streptococcus,4.46 µM (active)
same,EC50,[15],4.24 µM (active)
same,EC50,cells [9],101 µM (active)
same,EC50,cells [10],12.6 µM (active)
same,AC50,INS1,2.58 µM (active)
CCOC(=O)C(C)Oc1cccc2c(=O)n(CC(=O)NCc3ccccc3)ccc12 (stereo unspecified),IC50,[2],> 80 µM (inactive)
same,EC50,BJ [5],7.35 µM (active)
same,EC50,BJ [6],0.785 µM (active)
same,EC50,BJ [7],0.772 µM (active)
same,EC50,[8],645 nM (active)
Cc1[nH]n(-c2ccc(C(=O)O)cc2)c(=O)c1CCO,IC50,[1],> 50 µM (not active)
C/C(=N\NC(=O)c1cc(-c2cccnc2)nc2ccccc12)c1ccc(O)cc1O,EC50,[16],4.94 µM (active)
same,EC50,[17],8.88 µM (active)
same,EC50,cells [9],10.9 µM (active)
same,EC50,[18],9.7 µM (active)
same,EC50,[19],5.99 µM (active)
same,EC50,cells [10],> 350 µM (not active)
same,EC50,[20],> 38 µM (not active)
same,AC50,INS1,0.661 µM (active)
CCCCSc1nc(C)cc(SCC(=O)N/N=C/c2cccc(OC)c2O)n1,EC50,Streptococcus,2.61 µM (active)
same,EC50,[21],> 260 µM (inactive)
same,EC50,[15],2.31 µM (active)
same,EC50,[17],10.2 µM (active)
same,EC50,cells [9],15 µM (active)
same,EC50,[18],9.62 µM (active)
same,AC50,[22],7.03 µM (active)
same,EC50,[19],11.6 µM (active)
same,EC50,cells [10],> 350 µM (not active)
O=[N+]([O-])c1cccc(-c2nc3ccccc3s/c2=N/O)c1,IC50,[1],22 µM (not active)
COc1cc(O)c2c(c1)COC2=O,IC50,[3],> 47.1 µM (inactive)
same,EC50,[4],> 53 µM (inactive)
